Test results published in patent US20250147039A1, “Compounds for complexation of rare earth elements and/or s-, p-, d- block metals, their coordination compounds, peptide conjugates, method of their preparation and use thereof” (USTAV ORGANICKE CHEMIE A BIOCHEMIE AV CR V.V.I., priority 2021, published 2025).

Columns and labels:
[1] = Formation of 1,5-cz-[M(Lig)] from Lig and M^III ions (metal dependent click-zip) (Charts 4, 5); assay type: physicochemical; conditions: MOPS/NaOH buffer pH 7.0, TD728, TD827 in 50% i-PrOH; for conversion to 1,5-cz-[M(Lig)], Y^III: TD714 sum of two diastereoisomers
[2] = pH dependent formation of 1,5- and 1,4-cz-Lig isomers from Lig (pH dependent click-zip) (Chart 13); assay type: physicochemical
[3] = Alkali metal dependent formation of 1,5-cz-Lig and 1,4-cz-Lig isomers from Lig at pH 10.2 (Chart 14); assay type: physicochemical; conditions: Borate/(M^I)2CO3 buffer pH 10.2
[4] = Formation of 1,5-cz-[Ln(Lig)] from Lig and Ln^III ions (metal dependent click-zip), MOPS/NaOH buffer pH 7.0, analytical HPLC (Charts 1, 2); conditions: MOPS/NaOH buffer pH 7.0
[5] = A: 1 hour at 80° C., 0.1M HClO4 (pH ~1)
[6] = A: 1 hour at 80° C., 1.0M HClO4 (pH ~0)
[7] = A: 1 hour at 80° C., pH 2.2, 50 mM aq. buffer
[8] = A: 1 hour at 80° C., pH 3.0, 50 mM aq. buffer
[9] = A: 1 hour at 80° C., pH 3.8, 50 mM aq. buffer
[10] = A: 1 hour at 80° C., pH 4.6, 50 mM aq. buffer
[11] = A: 1 hour at 80° C., pH 5.4, 50 mM aq. buffer
[12] = A: 1 hour at 80° C., pH 6.2, 50 mM aq. buffer
[13] = A: 1 hour at 80° C., pH 7.0, 50 mM aq. buffer
[14] = A: 1 hour at 80° C., pH 8.6, 50 mM aq. buffer
[15] = A: 1 hour at 80° C., pH 9.4, 50 mM aq. buffer
[16] = A: 1 hour at 80° C., pH 10.2, 50 mM aq. buffer
[17] = B: 1 day at 80° C., 0.1M HClO4 (pH ~1)
[18] = B: 1 day at 80° C., 1.0M HClO4 (pH ~0)
[19] = B: 1 day at 80° C., pH 2.2, 50 mM aq. buffer
[20] = B: 1 day at 80° C., pH 3.0, 50 mM aq. buffer
[21] = B: 1 day at 80° C., pH 3.8, 50 mM aq. buffer
[22] = B: 1 day at 80° C., pH 4.6, 50 mM aq. buffer
[23] = B: 1 day at 80° C., pH 5.4, 50 mM aq. buffer
[24] = B: 1 day at 80° C., pH 6.2, 50 mM aq. buffer
[25] = B: 1 day at 80° C., pH 7.0, 50 mM aq. buffer
[26] = B: 1 day at 80° C., pH 8.6, 50 mM aq. buffer
[27] = B: 1 day at 80° C., pH 9.4, 50 mM aq. buffer
[28] = B: 1 day at 80° C., pH 10.2, 50 mM aq. buffer
[29] = B: 1 day at 80° C., visible analyte free precipitate

- conversion to 1,5-cz-[M(Lig)], Sc^III ([1]; 1 week at 80° C.): 0%
- conversion to 1,5-cz-[M(Lig)], Y^III ([1]; 1 week at 80° C.): 0%
- conversion to 1,5-cz-[M(Lig)], Sc^III ([1]; 1 hour at 80° C.): 0%
- conversion to 1,5-cz-[M(Lig)], Y^III ([1]; 1 hour at 80° C.): 0%
- conversion to 1,4-cz-Lig isomer [2, 5]: 0%
- conversion to 1,5-cz-Lig isomer [2, 5]: 13%
- conversion to 1,4-cz-Lig isomer [2, 6]: 0%
- conversion to 1,5-cz-Lig isomer [2, 6]: 13%
- conversion to 1,4-cz-Lig isomer [2, 7]: 0%
- conversion to 1,5-cz-Lig isomer [2, 7]: 13%
- conversion to 1,4-cz-Lig isomer [2, 8]: 0%
- conversion to 1,5-cz-Lig isomer [2, 8]: 10%
- conversion to 1,4-cz-Lig isomer [2, 9]: 0%
- conversion to 1,5-cz-Lig isomer [2, 9]: 3%
- conversion to 1,4-cz-Lig isomer [2, 10]: 0%
- conversion to 1,5-cz-Lig isomer [2, 10]: 1%
- conversion to 1,4-cz-Lig isomer [2, 11]: 0%
- conversion to 1,5-cz-Lig isomer [2, 11]: 1%
- conversion to 1,4-cz-Lig isomer [2, 12]: 0%
- conversion to 1,5-cz-Lig isomer [2, 12]: 0%
- conversion to 1,4-cz-Lig isomer [2, 13]: 0%
- conversion to 1,5-cz-Lig isomer [2, 13]: 0%
- conversion to 1,4-cz-Lig isomer [2, 14]: 0%
- conversion to 1,5-cz-Lig isomer [2, 14]: 0%
- conversion to 1,4-cz-Lig isomer [2, 15]: 0%
- conversion to 1,5-cz-Lig isomer [2, 15]: 1%
- conversion to 1,4-cz-Lig isomer [2, 16]: 0%
- conversion to 1,5-cz-Lig isomer [2, 16]: 1%
- conversion to 1,4-cz-Lig isomer [2, 17]: 0%
- conversion to 1,5-cz-Lig isomer [2, 17]: 90%
- conversion to 1,4-cz-Lig isomer [2, 18]: 0%
- conversion to 1,5-cz-Lig isomer [2, 18]: 88%
- conversion to 1,4-cz-Lig isomer [2, 19]: 0%
- conversion to 1,5-cz-Lig isomer [2, 19]: 93%
- conversion to 1,4-cz-Lig isomer [2, 20]: 0%
- conversion to 1,5-cz-Lig isomer [2, 20]: 89%
- conversion to 1,4-cz-Lig isomer [2, 21]: 0%
- conversion to 1,5-cz-Lig isomer [2, 21]: 57%
- conversion to 1,4-cz-Lig isomer [2, 22]: 0%
- conversion to 1,5-cz-Lig isomer [2, 22]: 15%
- conversion to 1,4-cz-Lig isomer [2, 23]: 0%
- conversion to 1,5-cz-Lig isomer [2, 23]: 6%
- conversion to 1,4-cz-Lig isomer [2, 24]: 1%
- conversion to 1,5-cz-Lig isomer [2, 24]: 6%
- conversion to 1,4-cz-Lig isomer [2, 25]: 4%
- conversion to 1,5-cz-Lig isomer [2, 25]: 8%
- conversion to 1,4-cz-Lig isomer [2, 26]: 5%
- conversion to 1,5-cz-Lig isomer [2, 26]: 10%
- conversion to 1,4-cz-Lig isomer [2, 27]: 4%
- conversion to 1,5-cz-Lig isomer [2, 27]: 11%
- conversion to 1,4-cz-Lig isomer [2, 28]: 2%
- conversion to 1,5-cz-Lig isomer [2, 28]: 12%
- conversion to 1,4-cz-Lig isomer, Cs^I ([3]; A: 1 hour at 80° C.): 1%
- conversion to 1,4-cz-Lig isomer, K^I ([3]; A: 1 hour at 80° C.): 1%
- conversion to 1,4-cz-Lig isomer, Li^I ([3]; A: 1 hour at 80° C.): 0%
- conversion to 1,4-cz-Lig isomer, Na^I ([3]; A: 1 hour at 80° C.): 0%
- conversion to 1,4-cz-Lig isomer, Rb^I ([3]; A: 1 hour at 80° C.): 1%
- conversion to 1,5-cz-Lig isomer, Cs^I ([3]; A: 1 hour at 80° C.): 1%
- conversion to 1,5-cz-Lig isomer, K^I ([3]; A: 1 hour at 80° C.): 0%
- conversion to 1,5-cz-Lig isomer, Li^I ([3]; A: 1 hour at 80° C.): 0%
- conversion to 1,5-cz-Lig isomer, Na^I ([3]; A: 1 hour at 80° C.): 1%
- conversion to 1,5-cz-Lig isomer, Rb^I ([3]; A: 1 hour at 80° C.): 1%
- conversion to 1,4-cz-Lig isomer, Cs^I ([3]; B: 1 day at 80° C.): 10%
- conversion to 1,4-cz-Lig isomer, K^I ([3]; B: 1 day at 80° C.): 10%
- conversion to 1,4-cz-Lig isomer, Na^I ([3]; B: 1 day at 80° C.): 1%
- conversion to 1,4-cz-Lig isomer, Rb^I ([3]; B: 1 day at 80° C.): 10%
- conversion to 1,5-cz-Lig isomer, Cs^I ([3]; B: 1 day at 80° C.): 11%
- conversion to 1,5-cz-Lig isomer, K^I ([3]; B: 1 day at 80° C.): 10%
- conversion to 1,5-cz-Lig isomer, Na^I ([3]; B: 1 day at 80° C.): 9%
- conversion to 1,5-cz-Lig isomer, Rb^I ([3]; B: 1 day at 80° C.): 10%
- conversion to 1,4-cz-Lig isomer, Li^I [3, 29]: 0%
- conversion to 1,5-cz-Lig isomer, Li^I [3, 29]: 2%
- conversion to 1,5-cz-[Ln(Lig)], Ce^III ([4]; after 1 week at 80° C.): 0%
- conversion to 1,5-cz-[Ln(Lig)], Ce^III ([4]; after 1 hour at 80° C.): 0%
- conversion to 1,5-cz-[Ln(Lig)], Dy^III ([4]; after 1 week at 80° C.): 0%
- conversion to 1,5-cz-[Ln(Lig)], Dy^III ([4]; after 1 hour at 80° C.): 0%
- conversion to 1,5-cz-[Ln(Lig)], Er^III ([4]; after 1 week at 80° C.): 0%
- conversion to 1,5-cz-[Ln(Lig)], Er^III ([4]; after 1 hour at 80° C.): 0%
- conversion to 1,5-cz-[Ln(Lig)], Eu^III ([4]; after 1 week at 80° C.): 0%
- conversion to 1,5-cz-[Ln(Lig)], Eu^III ([4]; after 1 hour at 80° C.): 0%
- conversion to 1,5-cz-[Ln(Lig)], Gd^III ([4]; after 1 week at 80° C.): 0%
- conversion to 1,5-cz-[Ln(Lig)], Gd^III ([4]; after 1 hour at 80° C.): 0%
- conversion to 1,5-cz-[Ln(Lig)], Ho^III ([4]; after 1 week at 80° C.): 0%
- conversion to 1,5-cz-[Ln(Lig)], Ho^III ([4]; after 1 hour at 80° C.): 0%
- conversion to 1,5-cz-[Ln(Lig)], La^III ([4]; after 1 week at 80° C.): 0%
- conversion to 1,5-cz-[Ln(Lig)], La^III ([4]; after 1 hour at 80° C.): 0%
- conversion to 1,5-cz-[Ln(Lig)], Lu^III ([4]; after 1 week at 80° C.): 0%
- conversion to 1,5-cz-[Ln(Lig)], Lu^III ([4]; after 1 hour at 80° C.): 0%
- conversion to 1,5-cz-[Ln(Lig)], Nd^III ([4]; after 1 week at 80° C.): 0%
- conversion to 1,5-cz-[Ln(Lig)], Nd^III ([4]; after 1 hour at 80° C.): 0%
- conversion to 1,5-cz-[Ln(Lig)], Pr^III ([4]; after 1 week at 80° C.): 0%
- conversion to 1,5-cz-[Ln(Lig)], Pr^III ([4]; after 1 hour at 80° C.): 0%
- conversion to 1,5-cz-[Ln(Lig)], Sm^III ([4]; after 1 week at 80° C.): 0%
- conversion to 1,5-cz-[Ln(Lig)], Sm^III ([4]; after 1 hour at 80° C.): 0%
- conversion to 1,5-cz-[Ln(Lig)], Tb^III ([4]; after 1 week at 80° C.): 0%
- conversion to 1,5-cz-[Ln(Lig)], Tb^III ([4]; after 1 hour at 80° C.): 0%
- conversion to 1,5-cz-[Ln(Lig)], Tm^III ([4]; after 1 week at 80° C.): 0%
- conversion to 1,5-cz-[Ln(Lig)], Tm^III ([4]; after 1 hour at 80° C.): 0%
- conversion to 1,5-cz-[Ln(Lig)], Yb^III ([4]; after 1 week at 80° C.): 0%
- conversion to 1,5-cz-[Ln(Lig)], Yb^III ([4]; after 1 hour at 80° C.): 0%
SMILES: C#CCNC(=O)CN1CCN(CC(=O)O)CCN(Cc2cc(-c3ccccc3)cc(CN=[N+]=[N-])n2)CCN(CC(=O)O)CC1 [TD425]
